Reference: US20250143289A1, “BIO-CONTROL COMBINATIONS, COMPOSITIONS AND METHOD OF USE” (DECCO WORLDWIDE POST-HARVEST HOLDINGS B.V., priority 2022, published 2025)

Test system: Penicillium digitatum (Pd)
Test: Biocontrol efficacy on post-harvest green mold decay of harvested oranges (online spraying, drying tunnel, storage)
Format: in vivo
Details: online spraying at 2 L/tonne of fruits, dried in drying tunnel, observed 36 days after storage, amounts per treatment as in Table 1
Protocol: A tank mix bio-control combination was prepared consisting of Candida oleophila strain O and sodium bicarbonate. […] The microbial component was applied as water dispersible granules. The concentration of C. oleophila strain O was 2.33 g/L (0.23% w/v) and the biologically effective amount of the strain was 3×10^10 cfu/gm. The concentration of the C. oleophila strain O used was varying between 0.1 to 5% w/v of the combination.
The biocontrol efficacy of the combination of the present invention on post-harvest fungal disease caused by green mold was evaluated. […] The harvested oranges were treated with the biocontrol combination and then subjected to drying in a drying tunnel. […] The oranges were treated by online spraying of each treatment. The biologically effective amount of Candida oleophila is 3×10^10 cfu/g of the combination. Each application is made at a rate 2 L/tonne of citrus fruits. The observations were made on the treated oranges and the untreated control at 36 days after storage.

With `O=C([O-])O.[Na+]` [Sodium bicarbonate] the “% decay on fruits” value was 15%.
